Data as given in patent US20230138400A1, “METHODS AND PHARMACEUTICAL COMPOSITIONS FOR REPROGRAMING IMMUNE ENVIRONMENT IN A SUBJECT IN NEED THEREOF” (INSERM (INSTITUT NATIONAL DE LA SANTE ET DE LA RECHERCHE …, priority 2016, published 2023).

Tests used:
tumor side lymph nodes = test: T cells in tumor side lymph nodes after DDA, flow cytometry; assay type: in vivo, mouse
Procedure: FIGS. 20A-C. The priming of T cells inside tumor side lymph node is dependent of the LXR expressed by tumor cells. Animals were grafted with tumor cells and treated as described in FIG. 2. At the end of the experiments, tumor side lymph nodes (mesenteric, auxiliary and brachial) were collected, dissociated and stimulated in vitro with 50 ng/ml of PMA (Sigma), 500 ng/ml Ionomycin (Sigma) and 1/1000 of golgi stop (ebiosicence) during 3 h at 370 to analyze by flow cytometry the phenotype of T cells. (A-C) The dots in the graphs represent the relative number of (A) T regulatory cells (CD4+ Foxp3+), (B) Th1 CD4+ cells (CD4+ T-bet+) and (C) cytotoxic CD8+ T cells (CD8+ Granzym B+ IFNγ+). The vehicle was normalized to 1. Graphs are representative of three independent experiments.
Organ dissociation and flow cytometry. The tumor-side lymph nodes were dissociated manually while for the tumor, gentlemac technology (Miltenyi) was used. Then, the suspension of tumor cells or lymph node were stimulated with 50 ng/ml of PMA (Sigma), 500 ng/ml Ionomycin (Sigma) and 1/1000 of golgi stop (ebiosicence) during 3 h at 37° C. After that, the single cell suspension were stained with the indicated fluorescent-labelled antibodies: anti mouse α-CD4, α-CD8, α-T-bet, α-Foxp3, α-granzyme B, α-PD-1, α-CD44, α-Ly6C, α-Ly6G, α-CD11b, α-CD11c, α-CD206 IL10, α-CD86 as well as live/dead stain purchased from eBioscience or Biolegend. Intracellular staining for T-bet, Foxp3, and Granzyme B, was performed according the manufacturer's protocol from Biolegend. To set the gates, flow cytometry dot plots were based on comparison with isotype control. Flow cytometry measurements of single-cells suspension were performed on a Fortessa 20X (BD pharmingen) and data were analyzed using FlowJo software.

[1] = system: naive CD4 T cells isolated from the spleen of C57BL/6 mice; test: Polarization of naive CD4 T cells (Th1, Th2, Treg, Th17 conditions) in presence of DDA, flow cytometry; assay type: cell-based, mouse
Procedure: FIGS. 1A-E. Sorted naive CD4 T cells were isolated from the spleen of C57BL/6 mice and activated in the indicated Th1, Th2, Treg, or Th17 polarizing conditions as described in the “Materials and methods” section”. These cells were cultured in the presence of increasing concentrations of DDA. After 96 hours, the percentage of (A) Th1: CD4+Tbet+IFNg+, (B) Th2: CD4+GATA3+[…], (C) Treg: CD4+Foxp3+IL10+ and (D) Th17: CD4+RORgt+[…], cells was measured by flow cytometry. (E) Sorted naive CD8 T cells were isolated from the spleen of the C57BL/6 mice and activated with anti-CD3, anti-CD28 and recombinant IL2. After 96 hours, the percentage of cytotoxic T CD8+GranzymB+IFNg+ cells was measured by flow cytometry.
FIGS. 2A-E. Sorted naive CD4 T cells isolated from the spleen of C57BL/6 mice were activated in Th1, Th2, Treg, or Th17 polarizing conditions as indicated in the “Materials and methods” section”. After 96 h, increasing concentrations of DDA was added on polarized CD4 T cells for 24 h. Then the percentage of (A) CD4+Tbet+IFNg+, (B) CD4+GATA3+[…], (C) CD4+Foxp3+IL10+ and (D) CD4+RORgt+[…] cells was measured by flow cytometry. (E) Sorted naïve CD8 T cells were isolated from the spleen of the C57BL/6 mice and activated with anti-CD3, anti-CD28 and recombinant IL2. After 96 h, increasing concentrations of DDA was added on activated CD8 T cells for 24 h. Then the percentage of cytotoxic T CD8+GranzymB+IFNg+ cells was measured by flow cytometry.
Cells isolation. Single-cells leukocyte suspensions were obtained from spleens of C57BL/6 mice. Naive CD4 or CD8 T cells are isolated by depletion of memory CD4 or CD8 T cells and non-CD4 or non-CD8 T cells according the manufacturer's protocol from Miltenyi kit (Miltenyi biotec). Purities of CD4+CD44l^ow CD62L^high or CD8+CD44l^ow CD62L^high T cells after isolation were >98%
Immune cell culture. Isolated CD4+ or CD8+ T cells were cultures in 96-well flat bottom plates (0.25×10^6 cells per wells) in 0.25 ml of complete RPMI 1640 media (10% FBS, 1% penicillin/Streptomycin, 1% sodium pyruvate, 1% HEPES and 50 μM b-mercaptoethanol) in the presence of 10 μg/ml plate-bound anti-mouse CD3 (2C11) and 2 μg/ml soluble α-CD28 (LEAF) in addition to 50 ng/ml of recombinant IL-2 (e-bioscience). DDA (synthesized by Affichem) diluted in the solvent vehicle was added at increasing concentration (0-1-10-100 and 1000 nM). Cells were cultured in polarizing Th1 (20 ng/ml of recombinant […] and 10 μg/ml of anti-IL4), Th2 (50 ng/ml of recombinant IL-4, 10 μg/ml of anti-IFNg), Th17 (10 ng/ml of recombinant TGF-b, 100 ng/ml of recombinant IL-6, 10 μg/ml of anti-IFN-g and 10 μg/ml of anti-IL4) or Treg (10 ng/ml of recombinant TGF-b, 10 μg/ml of anti-IFNg and 10 μg/ml of anti-IL4) conditions. All recombinant cytokines were purchased from Peprotech and antibodies were purchased from eBioscience. After 5 days of culture, cells were collected and analyzed by flow cytometry. To investigate the impact of DDA on polarization of CD4 or CD8 naive T cells, DDA or the solvent vehicle was added at the beginning of culture at Day 0 or at Day 4 and cells was analyzed at day 5 by flow cytometry.

For CC(C)CCCC(C)[C@H]1CCC2C3C[C@@H](NCCc4cnc[nH]4)[C@@]4(O)C[C@@H](O)CC[C@]4(C)C3CC[C@@]21C (stereo partly shown) [DDA, 5a-hydroxy-6b-[2-(1H-imidazol-4-yl)ethylamino]cholestan-3b-ol], the “number of Th1CD4+ cells infiltrated into tumor side lymph nodes” value (tumor side lymph nodes; 0.37 μg/kg DDA (FIG. 20)) was “increases”, the “number of Treg cells infiltrated into tumor side lymph nodes” value (tumor side lymph nodes; 0.37 μg/kg DDA (FIG. 20)) was “decreases” and the “number of cytotoxic CD8 T cells infiltrated into tumor side lymph nodes” value (tumor side lymph nodes; 0.37 μg/kg DDA (FIG. 20)) was “increases”. The “LXRβ dependence of priming of T cells inside tumor side lymph nodes” value (tumor side lymph nodes; shLXRβ vs LXRβ expressing tumors (FIG. 20)) was “dependent of the LXRβ”, the “concentration from which differentiation of Th0 into Th1 is increased” value ([1]; DDA added at day 0, Th1 polarizing conditions, 96 h, CD4+Tbet+IFNg+) was at least 1 nM and the Th2 differentiation ([1]; DDA added at day 0, Th2 polarizing conditions) was “no effect”. The “concentration from which differentiation of Th0 into Th17 is increased” value ([1]; DDA added at day 0, Th17 polarizing conditions, 96 h) was at least 100 nM, the Treg differentiation ([1]; DDA added at day 0, Treg polarizing conditions) was “no effect” and the “concentration from which differentiation of Th0 into Th1 is increased” value ([1]; DDA added at day 4 for 24 h) was at least 1 nM. For the same molecule, the “differentiation into Th2” value ([1]; DDA added at day 4 for 24 h) was “no effect”, the “differentiation into Th17” value ([1]; DDA added at day 4 for 24 h) was “no effect” and the “differentiation of Th0 into Treg” value ([1]; DDA added at day 4 for 24 h (FIG. 2)) was “inhibits”. The “activated phenotype of CD4 T cells (CD44 at their surface)” value ([1]; day 4, data not shown) was “upregulation of CD44”.
